The experiment has as its target endothelial lipase (EL) (Homo sapiens (Human), UniProt Q9Y5X9). As to the kind of experiment: Endothelial lipase (EL) enzymatic assay with fluorescent substrate A10070 in DMPG vesicles. The format is biochemical. To be noted: conditioned media from HT-1080 cells overexpressing endogenous EL; 20 min preincubation at 37° C. How it is done: Endothelial lipase activity was measured using a fluorescent substrate, A10070, (Invitrogen, CA) doped into an artificial vesicle containing DMPG (Avanti Polar Lipids) as the excipient. Vesicles were prepared by combining 285 μL, of 1 mM DMPG in a 1:1 mixture of MeOH and CHCl3 with 15 μL, of 1 mM A10070 in a 1:1 mixture of MeOH and CHCl3. The mixture was dried under nitrogen and resuspended in 150 μL, of 50 mM HEPES pH 8.0 buffer containing 100 mM NaCl and 0.2 mM EDTA. The sample was allowed to sit at rt for 15 min and then was sonicated 3×4 mins on ice with a Branson Sonicator using duty cycle 1. This preparation provides vesicles with a mole fraction of 0.05 for the FRET substrate.
The enzymatic assay was measured using white, opaque 96-well half area plates. Each well contained 60 μL, of assay buffer (50 mM HEPES pH 8.0, 50 mM NaCl and 1 mM CaCl2) and 2 ul of a DMSO solution containing compound of interest. Conditioned media obtained from HT-1080 cells, which were transformed by RAGE technology (Athersys) to overexpress endogenous EL, was added and the reaction was allowed to incubate for 20 min at 37° C. with gentle agitation. The reaction was started by the addition of 20 μL, of a 1:4 dilution of vesicles. The final total reaction volume was 100 μL. The reaction rates were measured on a Gemini plate reader with an excitation wavelength of 488 nm and an emission of 530 nm. Readings were taken every 20 seconds for 10 min with agitation between each reading. The slope of the linear portion of the readout was used to calculate the rate of the reaction.

Bounds are passed on as bounds.

Sequence of endothelial lipase (EL) (Q9Y5X9 21-500): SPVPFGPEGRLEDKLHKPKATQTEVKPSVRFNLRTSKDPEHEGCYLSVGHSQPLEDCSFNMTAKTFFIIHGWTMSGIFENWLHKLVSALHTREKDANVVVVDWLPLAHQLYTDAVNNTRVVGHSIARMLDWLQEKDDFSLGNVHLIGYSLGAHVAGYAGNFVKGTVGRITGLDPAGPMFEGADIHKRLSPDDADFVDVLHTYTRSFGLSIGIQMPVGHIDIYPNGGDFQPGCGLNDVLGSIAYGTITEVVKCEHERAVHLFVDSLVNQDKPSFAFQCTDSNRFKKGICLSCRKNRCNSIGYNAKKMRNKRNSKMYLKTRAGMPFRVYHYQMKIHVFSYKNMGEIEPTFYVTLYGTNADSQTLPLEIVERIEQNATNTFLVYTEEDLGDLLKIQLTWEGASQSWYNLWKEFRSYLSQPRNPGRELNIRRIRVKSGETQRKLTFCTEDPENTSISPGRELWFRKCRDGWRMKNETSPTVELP

Consider `O=C1NC(=O)C(Cc2nnc(C(NC(=O)c3ccc(C(F)(F)F)cc3)c3nc4ccc(-c5ccc(F)nc5)cc4s3)o2)S1` (centres unmarked) [Example 1, N-((5-((2,4-dioxothiazolidin-5-yl)methyl)-1,3,4-oxadiazol-2-yl)(6-(6-fluoropyridin-3-yl)benzo[d]thiazol-2-yl)methyl)-4-(trifluoromethyl)benzamide], for which the IC50 is < 0.01 µM.

On to `NS(=O)(=O)NCc1nnc(C(NC(=O)c2ccc(C(F)(F)F)cc2)c2nc3ccc(-c4ccc(F)nc4)cc3s2)o1` (centres unmarked) [Example 2, N-((6-(6-fluoropyridin-3-yl)benzo[d]-thiazol-2-yl)(5-((sulfamoyl-amino)-methyl)-1,3,4-oxadiazol-2-yl)methyl)-4-(trifluoro-methyl)-benzamide], for which the IC50 was < 0.01 µM. To `NS(=O)(=O)NCc1nnc(C(NC(=O)c2cccnc2)c2nc3ccc(-c4ccc(F)nc4)cc3s2)o1` (centres unmarked) [Example 3, N-((6-(6-fluoropyridin-3-yl)benzo[d]-thiazol-2-yl)(5-((sulfamoyl-amino)-methyl)-1,3,4-oxadiazol-2-yl)methyl)-nicotinamide] belongs < 0.01 µM; to `NS(=O)(=O)NCc1nnc(C(NC(=O)NCc2ccccc2)c2nc3ccc(-c4ccc(F)nc4)cc3s2)o1` (centres unmarked) [Example 4, 1-benzyl-3-((6-(6-fluoro-3-pyridinyl)-1,3-benzothiazol-2-yl)(5-((sulfamoyl-amino)-methyl)-1,3,4-oxadiazol-2-yl)methyl)urea], < 0.01 µM; to `CCC(=O)NC(c1nnc(CNS(N)(=O)=O)o1)c1nc2ccc(-c3ccc(F)nc3)cc2s1` (centres unmarked) [Example 5, N-((6-(6-fluoropyridin-3-yl)benzo[d]-thiazol-2-yl)(5-M-((sulfamoyl-amino)-methyl)-1,3,4-oxadiazol-2-yl)methyl)-propionamide], < 0.01 µM. For `CCOC(=O)CNC(=O)NC(c1nnc(CNS(N)(=O)=O)o1)c1nc2ccc(-c3ccc(F)nc3)cc2s1` (centres unmarked) [Example 6, ethyl 2-(3-((6-(6-fluoropyridin-3-yl)benzo[d]-thiazol-2-yl)(5-((sulfamoyl-amino)-methyl)-1,3,4-oxadiazol-2-yl)methyl)-ureido)acetate], the 50% inhibitory concentration (IC50) is < 0.01 µM. Then `NS(=O)(=O)NCc1nnc(C(NC(=O)Nc2ccc(F)cc2)c2nc3ccc(-c4ccc(F)nc4)cc3s2)o1` (centres unmarked) [Example 7, 1-(4-fluoro-phenyl)-3-((6-(6-fluoro-3-pyridinyl)-1,3-benzothiazol-2-yl)(5-((sulfamoyl-amino)-methyl)-1,3,4-oxadiazol-2-yl)methyl)urea], with < 0.01 µM.

Turning to `Cc1noc(C)c1NC(=O)NC(c1nnc(CNS(N)(=O)=O)o1)c1nc2ccc(-c3ccc(F)nc3)cc2s1` (centres unmarked) [Example 8, 1-(3,5-dimethyl-4-isoxazolyl)-3-((6-(6-fluoro-3-pyridinyl)-1,3-benzothiazol-2-yl)(5-((sulfamoyl-amino)-methyl)1,3,4-oxadiazol-2-yl)methyl)urea], the IC50 is < 0.01 µM.

As to `CC(=O)NC(c1nnc(CC2SC(=O)NC2=O)o1)c1nc2ccc(-c3ccc(F)nc3)cc2s1` (centres unmarked) [Example 9, N-((5-((2,4-dioxo-thiazolidin-5-yl)methyl)-1,3,4-oxadiazol-2-yl)-(6-(6-fluoropyridin-3-yl)benzo[d]-thiazol-2-yl)-methyl)-acetamide], the IC50 was < 0.01 µM. To `CC(=O)NC(c1nnc(CNS(N)(=O)=O)o1)c1nc2ccc(-c3ccc(F)nc3)cc2s1` (centres unmarked) [Example 10, N-((6-(6-fluoropyridin-3-yl)benzo[d]-thiazol-2-yl)(5-((sulfamoyl-amino)-methyl)-1,3,4-oxadiazol-2-yl)methyl)-acetamide] belongs < 0.01 µM. Then `CC(=O)NC(c1nnc(CC2SC(=O)NC2=O)o1)c1nc2ccc(-c3ccnn3C)cc2s1` (centres unmarked) [Example 11, N-((5-((2,4-dioxo-thiazolidin-5-yl)methyl)-1,3,4-oxadiazol-2-yl)(6-(1-methyl-1H-pyrazol-5-yl)benzo[d]-thiazol-2-yl)methyl)-acetamide], with < 0.01 µM; and `CC(=O)NC(c1nnc(CNS(N)(=O)=O)o1)c1nc2ccc(-c3ccccc3)cc2s1` (centres unmarked) [Example 12, N-((6-phenylbenzo[d]thiazol-2-yl)(5-((sulfamoylamino)methyl)-1,3,4-oxadiazol-2-yl)methyl)acetamide], with < 0.01 µM. Turning to `CC(C)C(=O)NC(c1nnc(CNS(N)(=O)=O)o1)c1nc2ccc(-c3ccccc3)cc2s1` (centres unmarked) [Example 13, N-((6-phenylbenzo[d]-thiazol-2-yl)(5-((sulfamoylamino)-methyl)-1,3,4-oxadiazol-2-yl)methyl)-isobutyramide], the IC50 is < 0.01 µM. Then `CC(C)NC(=O)NC(c1nnc(CNS(N)(=O)=O)o1)c1nc2ccc(-c3ccccc3)cc2s1` (centres unmarked) [Example 15, 1-isopropyl-3-((6-phenyl-1,3-benzothiazol-2-yl)(5-((sulfamoylamino)-methyl)-1,3,4-oxadiazol-2-yl)methyl)urea], with < 0.01 µM. Then `NS(=O)(=O)NCc1nnc(C(NC(=O)c2ccc(C(F)(F)F)cc2)c2nc3ccc(-c4ccccc4)cc3s2)o1` (centres unmarked) [Example 16, N-((6-phenylbenzo[d]-thiazol-2-yl)(5-((sulfamoylamino)-methyl)-1,3,4-oxadiazol-2-yl)methyl)-4-(trifluoromethyl)-benzamide], with < 0.01 µM; and `CC(=O)NC(c1nnc(CNC(=O)OC(C)(C)C)o1)c1nc2ccc(-c3ccccc3)cc2s1` (centres unmarked) [Example 17, tert-butyl ((5-(acetamido(6-phenylbenzo[d]-thiazol-2-yl)methyl)-1,3,4-oxadiazol-2-yl)methyl)-carbamate], with < 0.01 µM. Then `O=C(NC(c1nnc(CS(=O)(=O)O)o1)c1nc2ccc(-c3ccccc3)cc2s1)C1CC1` (centres unmarked) [Example 18, (5-(cyclopropane-carboxamido-(6-phenylbenzo[d]-thiazol-2-yl)methyl)-1,3,4-oxadiazol-2-yl)methanesulfonic acid], with < 0.01 µM; and `O=C1NC(=O)C(Cc2nnc(C(NC(=O)C3CC3)c3nc4c(F)cc(-c5ccccc5)cc4s3)o2)S1` (centres unmarked) [Example 21], with < 0.01 µM; and `O=C1NC(=O)C(Cc2nnc(C(NC(=O)c3ccc(C(F)(F)F)cc3)c3nc4c(F)cc(-c5ccccc5)cc4s3)o2)S1` (centres unmarked) [Example 22], with < 0.01 µM. The compound `CC(=O)NC(c1nnc(CC2(C)NC(=O)NC2=O)o1)c1nc2ccc(-c3ccc(C(=O)N4CCOCC4)cc3)cc2s1` (centres unmarked) [Example 23, N-((5-((4-methyl-2,5-dioxoimidazolidin-4-yl)methyl)-1,3,4-oxadiazol-2-yl)(6-(4-(morpholine-4-carbonyl)phenyl)benzo[d]thiazol-2-yl)methyl)acetamide] displayed an IC50 of 0.131 µM. That is a sub-micromolar value.

The compound `COc1nc(-c2nnc(C(NC(C)=O)c3nc4ccc(-c5ccccc5)cc4s3)o2)c(O)c(=O)[nH]1` (centres unmarked) [Example 24, N-((5-(5-hydroxy-2-methoxy-6-oxo-1,6-dihydropyrimidin-4-yl)-1,3,4-oxadiazol-2-yl)(6-phenylbenzo[d]thiazol-2-yl)methyl)acetamide] came in with an IC50 of 0.025 µM. Against the preceding compound, the IC50 is about 5.2-fold lower.

Turning to `CC(=O)NC(c1nnc(C2CNC2)o1)c1nc2ccc(-c3ccccc3)cc2s1` (centres unmarked) [Example 25, N-((5-(azetidin-3-yl)-1,3,4-oxadiazol-2-yl)(6-phenylbenzo[d]thiazol-2-yl)methyl)acetamide], it took 0.277 µM to reach half-maximal inhibition (IC50). For the compound `CC(=O)NC(c1nnc(C2CN(CC(C)(C)C)C2)o1)c1nc2ccc(-c3ccccc3)cc2s1` (centres unmarked) [Example 26, N-((5-(1-neopentylazetidin-3-yl)-1,3,4-oxadiazol-2-yl)(6-phenylbenzo[d]thiazol-2-yl)methyl)acetamide], inhibition was half-maximal at 0.017 µM (IC50).

These data come from US9139578B2 (BRISTOL-MYERS SQUIBB COMPANY, priority 2012, dated 2015).
